Data taken from ChEMBL document CHEMBL5131443, “Discovery of a benzimidazole-based dual FLT3/TrKA inhibitor targeting acute myeloid leukemia” (Bioorg Med Chem, 2022).
Active and inactive are the calls of the source. The calls are words filed in the database; no cut-off is given here.

What was measured:
[1] = target: Tyrosine-protein kinase ABL1 (Homo sapiens) (UniProt P00519); test: Inhibition of His-tagged recombinant human ABL1 at 1 uM
MOLM-13 [2] = test: Induction of apoptosis in human MOLM-13 cells assessed as increase number of apoptotic cells at 10 to 50 nM measured after 72 hrs by propidium iodide staining based flow cytometry; format: functional, cell-based; settings: dose 10-50 nM
MV4-11 [3] = test: Inhibition of colony formation in human MV4-11 cells at 500 nM measured after 14 days; format: functional, cell-based; settings: time 14.0 day
MOLM-13 [4] = test: Inhibition of colony formation in human MOLM-13 cells at 500 nM measured after 7 days; format: functional, cell-based; settings: time 7.0 day
KM12 = test: Anticancer activity against human KM12 cells assessed as cell viability after 72 hrs by ATP Cell Titer G1oTM assay; format: functional, cell-based; settings: KM12, 72 h
[5] = system: Receptor-type tyrosine-protein kinase FLT3 (Homo sapiens), P36888 [UNDEFINED MUTATION]; test: Inhibition of FLT3-ITD mutant in human MOLM-13 cells assessed as decrease in Erk1/2 phosphorylation measured after 24 to 48 hrs by Western blot analysis; format: cell-based; settings: dose 10-100 nM, time 24-48 hrs, DDE = dose-dependent effect
[6] = system: Receptor-type tyrosine-protein kinase FLT3 (Homo sapiens), P36888 [UNDEFINED MUTATION]; test: Inhibition of FLT3-ITD mutant in human MOLM-13 cells assessed as decrease in p-S6 kinase level measured after 24 to 48 hrs by Western blot analysis; format: cell-based; settings: dose 10-100 nM, time 24-48 hrs, DDE = dose-dependent effect
[7] = system: Receptor-type tyrosine-protein kinase FLT3 (Homo sapiens), P36888 [UNDEFINED MUTATION]; test: Inhibition of FLT3-ITD mutant in human MV4-11 cells assessed as decrease in p-S6 kinase level measured after 24 to 48 hrs by Western blot analysis; format: cell-based; settings: dose 10-100 nM, time 24-48 hrs, DDE = dose-dependent effect
[8] = system: Receptor-type tyrosine-protein kinase FLT3 (Homo sapiens), P36888 [UNDEFINED MUTATION]; test: Inhibition of FLT3-ITD mutant in human MV4-11 cells assessed as decrease in Erk1/2 phosphorylation measured after 24 to 48 hrs by Western blot analysis; format: cell-based; settings: dose 10-100 nM, time 24-48 hrs, DDE = dose-dependent effect
MOLM-13 [9] = test: Cell cycle arrest in human MOLM-13 cells assessed as accumulation at G0/G1 phase at 10 to 50 nM measured after 72 hrs by flow cytometry; format: functional, cell-based; settings: dose 10-50 nM
MV4-11 [10] = test: Cell cycle arrest in human MV4-11 cells assessed as accumulation at G0/G1 phase at 10 to 50 nM measured after 72 hrs by flow cytometry; format: functional, cell-based; settings: dose 10-50 nM
MV4-11 [11] = test: Induction of apoptosis in human MV4-11 cells assessed as increase number of apoptotic cells at 10 to 50 nM measured after 72 hrs by propidium iodide staining based flow cytometry; format: functional, cell-based; settings: dose 10-50 nM
MV4-11 [12] = test: Induction of apoptosis in human MV4-11 cells assessed as increase number of necrotic cells at 10 to 50 nM measured after 72 hrs by propidium iodide staining based flow cytometry; format: functional, cell-based; settings: dose 10-50 nM
MOLM-13 [13] = test: Induction of apoptosis in human MOLM-13 cells assessed as increase number of necrotic cells at 10 to 50 nM measured after 72 hrs by propidium iodide staining based flow cytometry; format: functional, cell-based; settings: dose 10-50 nM
BNL = test: Cytotoxicity against mouse BNL cells assessed as cell viability at 10 to 50 nM measured after 72 hrs by ATP Cell titer-Glo assay; format: toxicity, cell-based; settings: 0.05 µM, dose 10-50 nM
H9c2 = test: Cytotoxicity against rat H9c2 cells assessed as cell viability at 10 to 50 nM measured after 72 hrs by ATP Cell titer-Glo assay; format: toxicity, cell-based; settings: h9c2, 72 h, 0.05 µM, dose 10-50 nM
[14] = target: CDK2/Cyclin A2 (Homo sapiens) (UniProt P24941+P20248); test: Inhibition of His-tagged recombinant full length human CDK2/CyclinA expressed in baculovirus expression system at 1 uM by LanthaScreen assay
[15] = target: Fibroblast growth factor receptor 3 (Homo sapiens) (UniProt P22607); test: Inhibition of FGFR3 (unknown origin) at 1 uM
[16] = target: Vascular endothelial growth factor receptor 1 (Homo sapiens) (UniProt P17948); test: Inhibition of human recombinant FLT1 expressed in baculovirus expression system at 1 uM by LanthaScreen assay
[17] = target: Vascular endothelial growth factor receptor 3 (Homo sapiens) (UniProt P35916); test: Inhibition of human recombinant FLT4 expressed in baculovirus expression system at 1 uM by LanthaScreen assay
[18] = target: Insulin-like growth factor 1 receptor (Homo sapiens) (UniProt P08069); test: Inhibition of human recombinant IGF1R expressed in baculovirus expression system at 1 uM by LanthaScreen assay
[19] = target: Vascular endothelial growth factor receptor 2 (Homo sapiens) (UniProt P35968); test: Inhibition of human recombinant KDR expressed in baculovirus expression system at 1 uM by LanthaScreen assay
[20] = target: Mast/stem cell growth factor receptor Kit (Homo sapiens) (UniProt P10721); test: Inhibition of c-Kit (unknown origin) at 1 uM
[21] = target: Tyrosine-protein kinase Lck (Homo sapiens) (UniProt P06239); test: Inhibition of human recombinant LCK expressed in baculovirus expression system at 1 uM by LanthaScreen assay
[22] = target: Platelet-derived growth factor receptor alpha (Homo sapiens) (UniProt P16234); test: Inhibition of PDGFRA (unknown origin) at 1 uM
[23] = target: Platelet-derived growth factor receptor beta (Homo sapiens) (UniProt P09619); test: Inhibition of human recombinant PDGFRB expressed in baculovirus expression system at 1 uM by LanthaScreen assay
[24] = target: Serine/threonine-protein kinase B-raf (Homo sapiens) (UniProt P15056); test: Inhibition of B-raf (unknown origin) at 1 uM
[25] = target: Serine/threonine-protein kinase D2 (Homo sapiens) (UniProt Q9BZL6); test: Inhibition of human recombinant PRKD2 expressed in baculovirus expression system at 1 uM by LanthaScreen assay
[26] = target: Serine/threonine-protein kinase pim-1 (Homo sapiens) (UniProt P11309); test: Inhibition of human recombinant PIM1 expressed in baculovirus expression system at 1 uM by LanthaScreen assay
[27] = target: Proto-oncogene tyrosine-protein kinase Src (Homo sapiens) (UniProt P12931); test: Inhibition of human recombinant Src expressed in baculovirus expression system at 1 uM by LanthaScreen assay
[28] = target: BDNF/NT-3 growth factors receptor (Homo sapiens) (UniProt Q16620); test: Inhibition of human recombinant TrkB expressed in baculovirus expression system at 1 uM by LanthaScreen assay
[29] = target: NT-3 growth factor receptor (Homo sapiens) (UniProt Q16288); test: Inhibition of human recombinant TrkC expressed in baculovirus expression system at 1 uM by LanthaScreen assay
[30] = target: T1, Receptor-type tyrosine-protein kinase FLT3 (Homo sapiens, UniProt P36888)
Description: Inhibition of recombinant His-tagged human FLT3 (564 to 958 residues) expressed in baculovirus expression system by LanthaScreen assay

[31] = target: T2, Receptor-type tyrosine-protein kinase FLT3 (Homo sapiens, UniProt P36888, ITD)
[32] = target: T3, Receptor-type tyrosine-protein kinase FLT3 (Homo sapiens, UniProt P36888, D835Y)
[33] = target: High affinity nerve growth factor receptor (Homo sapiens, UniProt P04629)
Description: Inhibition of recombinant His-tagged human TrKA expressed in baculovirus expression system by LanthaScreen assay

MOLM-13 [34] = test: cells; settings: Homo sapiens, MOLM-13, 72 h
MV4-11 [35] = test: cells; settings: Homo sapiens, MV4-11, 72 h
[36] = target: T1, Receptor-type tyrosine-protein kinase FLT3; format: cell-based, RS4-11
[37] = target: T2, Receptor-type tyrosine-protein kinase FLT3; format: cell-based, MV4-11
[38] = target: T3, Receptor-type tyrosine-protein kinase FLT3; remark: listed apart in the source

Serine/threonine-protein kinase pim-1 (Homo sapiens), sequence (P11309 whole entry, looked up): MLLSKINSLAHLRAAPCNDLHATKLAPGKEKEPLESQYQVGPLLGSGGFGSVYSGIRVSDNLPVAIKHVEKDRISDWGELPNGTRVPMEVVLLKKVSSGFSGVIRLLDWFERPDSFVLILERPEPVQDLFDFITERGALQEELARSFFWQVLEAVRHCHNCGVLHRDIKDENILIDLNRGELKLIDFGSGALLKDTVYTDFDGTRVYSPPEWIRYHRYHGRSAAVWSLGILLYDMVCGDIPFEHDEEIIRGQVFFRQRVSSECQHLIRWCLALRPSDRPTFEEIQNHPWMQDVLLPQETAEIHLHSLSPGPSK
NT-3 growth factor receptor (Homo sapiens), sequence (Q16288 32-839 limits assumed): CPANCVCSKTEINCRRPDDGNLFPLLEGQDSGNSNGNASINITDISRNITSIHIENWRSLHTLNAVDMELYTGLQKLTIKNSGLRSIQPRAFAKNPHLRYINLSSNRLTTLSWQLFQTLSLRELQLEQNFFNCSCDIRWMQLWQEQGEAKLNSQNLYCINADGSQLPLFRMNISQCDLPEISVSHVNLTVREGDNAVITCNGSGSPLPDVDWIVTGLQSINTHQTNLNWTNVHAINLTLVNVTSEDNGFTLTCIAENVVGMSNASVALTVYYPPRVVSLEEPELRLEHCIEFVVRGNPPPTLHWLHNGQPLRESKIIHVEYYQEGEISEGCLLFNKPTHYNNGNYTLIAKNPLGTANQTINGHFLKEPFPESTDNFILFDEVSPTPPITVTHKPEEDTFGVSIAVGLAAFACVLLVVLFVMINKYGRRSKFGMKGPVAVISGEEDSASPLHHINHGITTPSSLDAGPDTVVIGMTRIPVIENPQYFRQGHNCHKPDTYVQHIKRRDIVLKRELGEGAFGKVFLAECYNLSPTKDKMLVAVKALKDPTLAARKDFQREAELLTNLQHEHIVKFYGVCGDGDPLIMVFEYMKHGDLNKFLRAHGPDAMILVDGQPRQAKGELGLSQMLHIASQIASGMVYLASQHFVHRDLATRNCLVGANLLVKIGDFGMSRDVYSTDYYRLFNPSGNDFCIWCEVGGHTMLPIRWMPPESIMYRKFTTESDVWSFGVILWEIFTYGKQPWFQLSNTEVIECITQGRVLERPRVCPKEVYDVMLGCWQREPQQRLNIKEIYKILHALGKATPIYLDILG
Proto-oncogene tyrosine-protein kinase Src (Homo sapiens), sequence (P12931 2-536 limits assumed): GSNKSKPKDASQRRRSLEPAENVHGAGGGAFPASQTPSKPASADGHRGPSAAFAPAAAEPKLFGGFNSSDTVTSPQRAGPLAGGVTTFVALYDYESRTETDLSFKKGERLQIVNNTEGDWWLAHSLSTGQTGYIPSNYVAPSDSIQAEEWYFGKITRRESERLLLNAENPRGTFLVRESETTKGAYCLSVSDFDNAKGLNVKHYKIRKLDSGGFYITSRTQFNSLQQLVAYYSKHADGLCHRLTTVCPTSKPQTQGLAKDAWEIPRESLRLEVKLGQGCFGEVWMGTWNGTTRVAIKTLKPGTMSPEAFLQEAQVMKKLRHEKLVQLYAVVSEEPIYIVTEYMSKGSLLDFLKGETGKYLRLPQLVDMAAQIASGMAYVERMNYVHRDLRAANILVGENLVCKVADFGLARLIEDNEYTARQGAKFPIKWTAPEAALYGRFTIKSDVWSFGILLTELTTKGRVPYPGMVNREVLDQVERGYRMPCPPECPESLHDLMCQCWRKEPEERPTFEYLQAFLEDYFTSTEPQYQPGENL
Tyrosine-protein kinase ABL1 (Homo sapiens), sequence (P00519 whole entry): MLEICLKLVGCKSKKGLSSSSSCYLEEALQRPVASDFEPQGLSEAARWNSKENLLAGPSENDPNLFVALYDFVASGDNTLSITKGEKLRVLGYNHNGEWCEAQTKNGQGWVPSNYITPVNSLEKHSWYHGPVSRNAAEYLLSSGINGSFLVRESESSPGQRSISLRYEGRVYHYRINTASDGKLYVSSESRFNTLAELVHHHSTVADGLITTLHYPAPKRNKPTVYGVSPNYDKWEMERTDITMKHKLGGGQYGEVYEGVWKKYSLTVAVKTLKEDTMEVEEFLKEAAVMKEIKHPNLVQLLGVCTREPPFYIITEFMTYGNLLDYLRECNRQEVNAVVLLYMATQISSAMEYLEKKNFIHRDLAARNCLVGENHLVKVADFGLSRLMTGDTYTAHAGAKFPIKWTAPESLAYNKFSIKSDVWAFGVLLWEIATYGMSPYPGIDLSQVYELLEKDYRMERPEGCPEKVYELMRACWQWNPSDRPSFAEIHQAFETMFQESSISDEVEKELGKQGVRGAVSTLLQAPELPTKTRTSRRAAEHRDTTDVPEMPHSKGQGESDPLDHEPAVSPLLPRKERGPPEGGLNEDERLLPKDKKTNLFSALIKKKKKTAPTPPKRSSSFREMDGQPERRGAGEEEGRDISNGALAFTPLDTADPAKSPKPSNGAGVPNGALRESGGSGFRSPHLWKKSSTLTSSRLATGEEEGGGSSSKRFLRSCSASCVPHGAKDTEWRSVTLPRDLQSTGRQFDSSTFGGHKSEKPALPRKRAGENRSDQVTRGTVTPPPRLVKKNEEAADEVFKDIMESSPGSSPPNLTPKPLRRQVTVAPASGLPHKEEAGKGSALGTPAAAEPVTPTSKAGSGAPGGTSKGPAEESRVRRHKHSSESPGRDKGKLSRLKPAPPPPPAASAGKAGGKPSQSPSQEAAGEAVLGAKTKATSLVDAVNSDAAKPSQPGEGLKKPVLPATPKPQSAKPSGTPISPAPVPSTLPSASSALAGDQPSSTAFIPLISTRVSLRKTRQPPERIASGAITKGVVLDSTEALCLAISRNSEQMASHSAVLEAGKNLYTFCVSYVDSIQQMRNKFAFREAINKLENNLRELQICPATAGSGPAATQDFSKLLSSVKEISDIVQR
Platelet-derived growth factor receptor beta (Homo sapiens), sequence (P09619 whole entry): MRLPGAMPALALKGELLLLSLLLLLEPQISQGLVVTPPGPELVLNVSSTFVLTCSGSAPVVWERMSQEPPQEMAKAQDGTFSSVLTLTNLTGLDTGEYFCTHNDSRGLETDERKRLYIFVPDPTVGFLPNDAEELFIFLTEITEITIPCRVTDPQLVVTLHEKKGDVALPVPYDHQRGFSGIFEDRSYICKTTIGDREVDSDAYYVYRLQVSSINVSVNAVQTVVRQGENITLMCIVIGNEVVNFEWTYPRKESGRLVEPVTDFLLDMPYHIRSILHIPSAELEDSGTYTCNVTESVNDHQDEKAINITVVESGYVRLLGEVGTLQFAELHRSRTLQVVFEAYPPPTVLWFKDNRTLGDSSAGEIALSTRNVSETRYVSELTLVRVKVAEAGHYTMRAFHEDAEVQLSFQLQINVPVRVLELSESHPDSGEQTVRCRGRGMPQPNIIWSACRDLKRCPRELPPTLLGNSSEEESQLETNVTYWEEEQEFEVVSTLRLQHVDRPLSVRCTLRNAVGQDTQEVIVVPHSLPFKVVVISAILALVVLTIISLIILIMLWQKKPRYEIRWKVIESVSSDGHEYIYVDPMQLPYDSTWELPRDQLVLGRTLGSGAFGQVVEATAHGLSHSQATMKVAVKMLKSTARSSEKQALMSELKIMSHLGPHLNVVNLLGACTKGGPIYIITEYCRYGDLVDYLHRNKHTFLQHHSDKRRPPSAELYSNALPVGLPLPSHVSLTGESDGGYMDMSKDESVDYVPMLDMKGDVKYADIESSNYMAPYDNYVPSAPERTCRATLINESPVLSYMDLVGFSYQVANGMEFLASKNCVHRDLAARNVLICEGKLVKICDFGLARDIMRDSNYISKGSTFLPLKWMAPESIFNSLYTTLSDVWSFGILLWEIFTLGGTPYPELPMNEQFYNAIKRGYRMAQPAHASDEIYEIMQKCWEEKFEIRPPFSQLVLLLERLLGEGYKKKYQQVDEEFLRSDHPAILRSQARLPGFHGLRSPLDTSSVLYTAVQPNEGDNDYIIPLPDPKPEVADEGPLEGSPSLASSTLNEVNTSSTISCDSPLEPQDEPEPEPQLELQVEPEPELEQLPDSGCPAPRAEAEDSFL
BDNF/NT-3 growth factors receptor (Homo sapiens), sequence (Q16620 32-822 limits assumed): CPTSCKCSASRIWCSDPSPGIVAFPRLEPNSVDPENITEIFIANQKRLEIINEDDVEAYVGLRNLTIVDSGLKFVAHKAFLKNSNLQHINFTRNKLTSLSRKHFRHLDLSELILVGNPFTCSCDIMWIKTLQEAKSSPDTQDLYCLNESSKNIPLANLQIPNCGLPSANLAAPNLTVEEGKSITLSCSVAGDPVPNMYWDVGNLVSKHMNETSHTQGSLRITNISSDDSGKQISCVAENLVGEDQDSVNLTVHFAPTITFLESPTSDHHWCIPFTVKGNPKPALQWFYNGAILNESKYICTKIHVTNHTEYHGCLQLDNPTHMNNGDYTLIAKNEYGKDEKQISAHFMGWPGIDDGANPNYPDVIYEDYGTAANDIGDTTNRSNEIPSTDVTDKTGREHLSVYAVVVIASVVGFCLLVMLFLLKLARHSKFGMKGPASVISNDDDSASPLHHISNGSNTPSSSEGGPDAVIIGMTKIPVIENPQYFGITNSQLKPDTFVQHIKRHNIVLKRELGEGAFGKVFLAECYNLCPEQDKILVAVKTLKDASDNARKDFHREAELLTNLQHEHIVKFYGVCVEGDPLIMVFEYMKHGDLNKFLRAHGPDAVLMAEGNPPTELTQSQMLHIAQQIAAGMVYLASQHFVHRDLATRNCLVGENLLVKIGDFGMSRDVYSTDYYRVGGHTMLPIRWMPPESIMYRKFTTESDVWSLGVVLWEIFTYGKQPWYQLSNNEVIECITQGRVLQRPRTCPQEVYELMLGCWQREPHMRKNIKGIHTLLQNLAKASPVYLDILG

For CC(=O)Nc1ccc(-n2cnc3cc(-c4ccc(OCCN5CCCCC5)cc4)ccc32)cc1, the inhibition [1] was 63%, the Activity (MOLM-13 [2]) was “Active” and the inhibition (MV4-11 [3]) was “Active”. The inhibition (MOLM-13 [4]) was “Active”, the IC50 (KM12) was 358 nM and the inhibition [5] was “Dde”. For the same molecule, the inhibition [6] was “Dde”, the inhibition [7] was “Dde” and the inhibition [8] was “Dde”. The Activity (MOLM-13 [9]) was “Active”, the Activity (MV4-11 [10]) was “Active” and the Activity (MV4-11 [11]) was “Active”. The Activity (MV4-11 [12]) was “Active”, the Activity (MOLM-13 [13]) was “Active” and the Activity (BNL) was “Non-Toxic”. For the same molecule, the Activity (H9c2) was “Non-Toxic”, the inhibition [14] was 2% and the inhibition [15] was 13%. For the same molecule, the inhibition [16] was 13%, the inhibition [17] was 24% and the inhibition [18] was 11%. For the same molecule, the inhibition [19] was 77%, the inhibition [20] was 36% and the inhibition [21] was 78%. It also gave an inhibition [22] of 41%, an inhibition [23] of 33% and an inhibition [24] of 5%. For the same molecule, the inhibition [25] was 19%, the inhibition [26] was 9% and the inhibition [27] was 27%. The inhibition [28] was 70%, the inhibition [29] was 79% and the IC50 [30] was 43.8 nM. The IC50 [31] was 97.2 nM, the IC50 [32] was 92.5 nM and the IC50 [33] was 23.6 nM. The IC50 (MOLM-13 [34]) was 38.8 nM and the IC50 (MV4-11 [35]) was 54.9 nM.

In the case of CCc1nc(C(N)=O)c(Cc2ccc(N3CCC(N4CCN(C)CC4)CC3)c(OC)c2)nc1CN1CCOCC1, the IC50 [36] is reported as 0.29 nM, the IC50 [37] is reported as 1.8 nM and the IC50 [38] is reported as 1.6 nM.
